According to patent US5411942A, “Peptide derivative, pharmaceutical preparation containing it and method for treatment of glaucoma” (Carlbiotech Ltd. A/S, priority 1989, dated 1995):
Peptide text beside a SMILES is read from it. * marks the point of attachment. Acm = CC(=O)NC*

Tests used:
[1] = tested on: stress induced ocular hypertensive rabbits; assay: Stress induced ocular hypertension in the rabbit eye, treatment started after pressure elevation; assay type: in vivo; conditions: for IOP lowering efficiency in relation to Timolol / Pressure after 5 days of stress (Treatment starts) / Pressure after 10 days of stress (5 days of treatment) / Initial Pressure (Unstressed) / Change in IOP: Example 6; for Pressure after 5 days of stress (Treatment starts) / Pressure after 5 days: before treatment; for Pressure after 10 days of stress (5 days of treatment): stress continued; for Initial Pressure (Unstressed): baseline before stress; for Change in IOP: day 10 versus day 5; for Pressure after 5 days / Initial Pressure / Pressure after 10 days (5 days of treatment): Example 8; for Pressure after 5 days: after 5 day stress induction; for Initial Pressure: baseline; for Pressure after 10 days (5 days of treatment): 2 drops four times for 5 days
Protocol: (§1) The main feature of this clinical model is a stress induced elevation of the intraocular pressure in the rabbit eye above the initial and normal value. The stress is exerted, i.e. applied, in the form of measuring the pressure (at 12 hour intervals) with the help of a SHIOTZ-Tonometer, which is loaded with 7.5 grams.
(§2) Adult rabbits of random breed and sex in groups of n=3-10 were employed. Weight 2,5-3,0 kg. The peptide was a freeze-dried powder, and was applied to the rabbit eye as a powder, or as drops, dissolved in 0.9% NaCl aqueous solution. Positive control was the commercial glaucoma drugs, either timololor pilocarpin, and negative control was 0.9% NaCl solution in water.
on stress induced ocular hypertensive rabbits. […] The amount of peptide per treatment was thus 3.75 mg which corresponds on a molar basis to the amount of Timolol used per treatment.
The local treatment was started on day 5 of glaucoma induction (i.e. afer 10 stress units), and the stress, that is the trauma, was continued during the treatment with the peptide.
A 1% and 0.1% solution of the peptide in 0.9% NaCl aqueous solution was applied four times (2 drops each time) for 5 days after an initial 5 day stress induction period. (Stress units at 12 hour intervals).

[2] = tested on: experimentally hypertensive rabbit eye; assay: Antagonizing effect on stress induced intraocular pressure in the rabbit eye, treatment simultaneous with stress; assay type: in vivo; conditions: for Change in pressure / Pressure after 5 1/5 / Initial Pressure: Example 9; for Change in pressure / Pressure after 5 1/5: 11 stress units, peptides as drops of 0.5% solution 3× daily; for Initial Pressure: baseline
Protocol: as §1, §2
20 mg peptide was dissolved in 0.6 ml 0.9% NaCl aqueous solution and applied in aliquots of 60 μl four times daily over a period of 2.5 days.
The treatment was started at the beginning of the experiment simultaneously with stress units. Five stress units were applied at 12 hour intervals.
Stress units were applied at 12 hour intervals over a period of 51/2 days, i.e. 11 stress units. The peptides were applied 3× daily over this period as drops of a 0.5% solution in 0.9% NaCl in aqueous solutions.
Stress units were applied at 12 hour intervals over a period of 51/2 days, i.e. 11 stress units. The peptides were applied 3× daily over this period as drops of a 1.0% solution in 0.9% NaCl in aqueous solution.

[3] = tested on: water load induced hypertension in the rabbit eye; assay: Water load model, intraocular pressure in rabbits' eyes; assay type: in vivo; conditions: single dose; for AUC: area under Δ IOP-time curve
Protocol: The findings of intraocular pressure lowering effects in the stress induced rabbit model has been confirmed and further studied by using another elevated eye pressure rabbit model. In this model, the widely applied water load model, elevation of the intraocular pressure is achieved by injecting a large volume of sterile water intraperitoneally into the rabbits. Following onset of eye drop treatment in one eye while the other eye is treated with saline placebo, the intraocular pressure of both eyes is then measured at various intervals and the pressure difference between the eyes is taken as an expression of the pharmaceutical effect. In these experiments, pilocarpine, a well-known pressure lowering cholinergic agent, was used as positive control.
The studies utilized a "water load" animal model.
Thirty minutes before drug solution installation, rabbits were injected intraperitonally with 60 ml/kg of sterile distilled water for injection (30° C.) spiked with an antibiotic mixture (Sigma P9032).
At time zero, 50 μl of a drug solution was instilled to one eye and an equal volume of a saline solution was instilled to the other eye. The intraocular pressure in each eye was monitored at the time points indicated. The change in intraocular pressure (IOP) at each time point is computed by subtracting the IOP in the dosed eye from that in the undosed eye.
From these plots was assessed the maximal IOP effect, the time to reach this and the time for returning to a zero or insignificant level of intraocular pressure lowering effect. These figures may be taken as a measure of potency and duration of effect. As a measure of the full pharmaceutical effect at various dose levels was taken a sum figure of the area under the curves (AUC).
A 0.5% solution of the peptides or 2.6% pilocarpine nitrate (positive control) in 0.9% NaCl aqueous solution was applied in one eye and 0.9% Nacl, also acting as negative control in the other eye, an IOP was measured in both eyes for 3 hours.
A 0.25%, 0.5% of 1.0% solution of the peptides in 0.9% aqueous NaCl solution was applied in one eye and 0.9% NaCl to the other eye and IOP was measured in both eyes for 3 hours.

[4] = tested on: cultured bovine trabecular meshwork cells; assay: Cultured bovine trabecular meshwork cells incubated with peptide; assay type: cell-based
Excerpt: The mechanism, or mechanisms, by way of which the peptides according to the invention work, is so far not known in detail and may be of hitherto unknown types or related to some known mechanisms. With the apparent lack of β-blocking effects, other known mechanisms could be effects on the enzyme carbo-anhydrase or effects on aqueous humour outflow. Some indications of mechanisms of the latter type have been found in in vitro studies. […] The significant decrease in glycosamine uptake with normal synthesis of glycoproteins like fibronectin is taken to indicate an influence on the formation of glycosamino glycans, an important parameter in the regulation of outflow of aqueous humour from the eye.

[5] = tested on: freshly excised bulbar conjunctiva; conditions: Ussing chamber, glutathione bicarbonate Ringer's solution
[6] = tested on: anterior sclera; conditions: Ussing chamber, glutathione bicarbonate Ringer's solution
[7] = tested on: mice; assay: Intravenous tolerance in mice; assay type: in vivo; conditions: doses as high as 40 mg/kg intravenously
[8] = tested on: rats; assay: Intravenous tolerance in rats; assay type: in vivo; conditions: doses as high as 40 mg/kg intravenously
[9] = tested on: rats; assay: Subcutaneous toxicity in rats, also prolonged for a month; assay type: in vivo; conditions: subcutaneous administration of similar doses in rats, also prolonged treatment for a month
[10] = tested on: blood pressure; conditions: e.g. at 10 mg/kg in rats
[11] = tested on: Salmonella strains; conditions: Ames test on Salmonella strains
[12] = tested on: rabbit's eye; conditions: 5% solution as eye drops in rabbit's eye, even after treatment over a month
[13] = tested on: antibodies in serum samples; conditions: serum of rats treated subcutaneously for one month in large doses
[14] = 0.5% peptide, 3.75 mg powder 4× daily
[15] = cell cultures incubated with the peptide
[16] = Example 11, 2.6% pilocarpine nitrate

Compound: H-Asn-Gly-Gly-Val-Cys(Acm)-NH2 (H-NGGVC(Acm)-NH2; also: acetate salt) [AsnGlyGlyValCys(Acm)NH2]
- IOP lowering efficiency in relation to Timolol ([1]; 0.5% peptide): 150%
- Pressure after 5 days of stress (Treatment starts) ([1]; 0.5% peptide group): 32.0 mm Hg
- Pressure after 10 days of stress (5 days of treatment) [1, 14]: 16.5 mm Hg
- Initial Pressure (Unstressed) [1, 14]: 19.0 mm Hg
- Change in IOP ([1]; 0.5% peptide): -15.5 mm Hg
- Pressure after 5 days ([1]; 0.1% peptide group): 28 mm Hg
- Initial Pressure ([1]; 0.1% peptide group): 18 mm Hg
- Pressure after 10 days (5 days of treatment) ([1]; 0.1% solution): 15.5 mm Hg
- Pressure after 5 days ([1]; 1% peptide group): 32 mm Hg
- Initial Pressure ([1]; 1% peptide group): 21 mm Hg
- Pressure after 10 days (5 days of treatment) ([1]; 1% solution): 18 mm Hg
- Change in IOP After 21/2 days, Absolute ([2]; Example 7, 20 mg in 0.6 ml saline, 60 μl four times daily for 2.5 days, five stress units): -4.7 mm/Hg
- Change in IOP After 21/2 days, Relative to Control ([2]; Example 7, relative to 0.9% saline): -9.2 mm/Hg
- Change in pressure [2]: 0 mm Hg
- Pressure after 5 1/5 [2]: 14 mm Hg
- Initial Pressure [2]: 14 mm Hg
- Duration of effect ([3]; Example 11, 0.5% solution): 120 min
- Time to max. response ([3]; Example 11, 0.5% solution): 30 min
- Max. response Δ IOP ([3]; Example 11, 0.5% solution, IOP followed 3 hours): -5.0 mm Hg
- Duration of effect ([3]; Example 12, Conc. 0.25%): 80 min
- Max resp. Δ IOP ([3]; Example 12, Conc. 0.25%): -2.0 mm Hg
- Time to max. resp. ([3]; Example 12, Conc. 0.25%): 30 min
- AUC ([3]; Example 12, Conc. 0.25%): 160 mm Hg×min
- Duration of effect ([3]; Example 12, Conc. 0.5%): 120 min
- Max resp. Δ IOP ([3]; Example 12, Conc. 0.5%): -5.0 mm Hg
- Time to max. resp. ([3]; Example 12, Conc. 0.5%): 30 min
- AUC ([3]; Example 12, Conc. 0.5%): 360 mm Hg×min
- Duration of effect ([3]; Example 12, Conc. 1.0%): 120 min
- Max resp. Δ IOP ([3]; Example 12, Conc. 1.0%): -4.0 mm Hg
- Time to max. resp. ([3]; Example 12, Conc. 1.0%): 30 min
- AUC ([3]; Example 12, Conc. 1.0%): 410 mm Hg×min
- cell growth and ultrastructure [4, 15]: normal growth and ultrastructure
- effect on collagen and fibronectin synthesis [4, 15]: no effect
- uptake of glycosamines ([4]; cultured bovine trabecular meshwork cells): marked and significant decrease
- penetration through tissue [5]: found to penetrate both tissues
- penetration through tissue [6]: found to penetrate both tissues

Compound: CC(=O)NCSC[C@H](NC(=O)[C@@H](NC(=O)CNC(=O)[C@H](CC(C)C)NC(=O)[C@@H](N)CC(N)=O)C(C)C)C(N)=O [AsnLeuGlyValCys(Acm)NH2, H-Asn-Leu-Gly-Val-Cys(Acm)-NH2] (H-NLGVC(Acm)-NH2)
- tolerance of intravenous doses [7]: easily tolerated
- tolerance of intravenous doses [8]: easily tolerated
- toxic or adverse effects [9]: no toxic or adverse effects
- effect on blood pressure [10]: no effect on blood pressure
- mutagenicity classification [11]: non-mutagenic
- anaesthetic effects [12]: neither anaesthetic effects
- irritant effects [12]: nor irritant effects
- penetration through tissue [6]: found to penetrate scleral tissue
- detection of antibodies by ELISA [13]: not been possible to detect such antibodies

Compound: CC[C@@H]1C(=O)OC[C@@H]1Cc1cncn1C [pilocarpine nitrate, reference compound]
- Duration of effect [3, 16]: 120 min
- Max. response Δ IOP [3, 16]: -5.0 mm Hg
- Time to max. response [3, 16]: 30 min

Compound: CC(C)(C)NC[C@H](O)COc1nsnc1N1CCOCC1 [Timolol, reference compound]
- IOP lowering efficiency in relation to Timolol ([1]; 0.25% Timolol): 100%
- Initial Pressure (Unstressed) ([1]; 0.25% Timolol group): 19.0 mm Hg
- Pressure after 5 days of stress (Treatment starts) ([1]; 0.25% Timolol group): 30.0 mm Hg
- Pressure after 10 days of stress (5 days of treatment) ([1]; 0.25% Timolol): 19.5 mm Hg
- Change in IOP ([1]; 0.25% Timolol): -10.5 mm Hg
- Change in pressure [2]: +1 mm Hg
- Pressure after 5 1/5 [2]: 16 mm Hg
- Initial Pressure [2]: 15 mm Hg
